# Molecular target: T1, Purified ERAP1 (37-941)-10His (ERAP1) (Homo sapiens, UniProt Q9NZ08)
# T1 construct: Purified ERAP1 (37-941)-10His (ERAP1)
# Assay: ERAP1 mediated hydrolysis of an amide substrate (10-mer inhibition assay), biochemical system
# Settings: 10-mer substrate, 23° C., 1 h, excitation 279 nm / emission 355 nm; read-out: IC50 vs Decapeptide WRVYEKC(Dnp)ALK-acid (where Dnp is Dinitrophenyl maleimide) (10-mer)
# T1 sequence (Q9NZ08 37-941): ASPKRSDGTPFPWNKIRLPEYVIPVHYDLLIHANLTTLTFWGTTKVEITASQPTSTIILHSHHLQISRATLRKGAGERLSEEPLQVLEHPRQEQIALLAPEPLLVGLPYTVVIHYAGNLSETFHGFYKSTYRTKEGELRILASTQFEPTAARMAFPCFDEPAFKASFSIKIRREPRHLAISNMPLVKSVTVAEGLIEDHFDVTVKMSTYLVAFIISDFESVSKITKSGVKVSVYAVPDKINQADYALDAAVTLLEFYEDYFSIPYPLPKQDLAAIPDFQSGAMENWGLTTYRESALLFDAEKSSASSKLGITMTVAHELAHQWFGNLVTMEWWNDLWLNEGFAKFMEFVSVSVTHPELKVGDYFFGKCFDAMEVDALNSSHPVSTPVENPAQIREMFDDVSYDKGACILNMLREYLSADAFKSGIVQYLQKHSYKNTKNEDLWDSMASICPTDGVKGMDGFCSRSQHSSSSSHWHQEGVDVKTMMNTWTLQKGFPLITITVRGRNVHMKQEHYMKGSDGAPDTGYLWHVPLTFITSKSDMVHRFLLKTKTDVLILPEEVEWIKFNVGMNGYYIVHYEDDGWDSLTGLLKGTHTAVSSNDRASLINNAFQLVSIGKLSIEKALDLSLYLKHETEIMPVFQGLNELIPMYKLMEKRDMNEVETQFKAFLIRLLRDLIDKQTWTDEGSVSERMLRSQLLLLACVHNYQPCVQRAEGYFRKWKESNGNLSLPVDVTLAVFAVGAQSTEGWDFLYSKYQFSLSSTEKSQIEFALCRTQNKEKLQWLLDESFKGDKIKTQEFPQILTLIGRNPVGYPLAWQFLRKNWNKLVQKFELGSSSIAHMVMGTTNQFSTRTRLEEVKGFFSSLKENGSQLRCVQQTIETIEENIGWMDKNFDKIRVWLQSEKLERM
row,IC50,SMILES
1,< 0.5 µM,"CC(C)c1ccc(C(=O)O)cc1S(=O)(=O)Nc1cc(C(F)(F)F)ccc1N1CCCCC1 [Example 3, 4-isopropyl-3-(N-(2-(piperidin-1-yl)-5-(trifluoromethyl)phenyl)sulfamoyl)benzoic acid]"
2,< 0.5 µM,"COc1ccc(C(=O)O)cc1S(=O)(=O)Nc1cc(C#N)ccc1N1CCCC(F)(F)C1 [Example 233, 3-(N-(5-cyano-2-(3,3-difluoropiperidin-1-yl)phenyl)sulfamoyl)-4-methoxybenzoic acid]"
3,< 0.5 µM,"CCOC1CCN(c2ccc(C(F)(F)F)cc2NS(=O)(=O)c2cc(C(=O)O)ccc2OC)CC1 [Example 180, 3-(N-(2-(4-ethoxypiperidin-1-yl)-5-(trifluoromethyl)phenyl)sulfamoyl)-4-methoxybenzoic acid]"
4,< 0.5 µM,"CCc1ccc(C(=O)O)cc1S(=O)(=O)Nc1cc(-c2cnc(C)s2)ccc1N1CCCCC1 [Example 282, 4-ethyl-3-(N-(5-(2-methylthiazol-5-yl)-2-(piperidin-1-yl)phenyl)sulfamoyl)benzoic acid]"
5,< 5 µM,"COc1ccc(C(=O)O)cc1S(=O)(=O)Nc1cc(C(F)(F)F)ccc1N1CC2(CCCO2)C1 [Example 11, 3-(N-(2-(5-oxa-2-azaspiro[3.4]octan-2-yl)-5-(trifluoromethyl)phenyl)sulfamoyl)-4-methoxybenzoic acid]"
6,< 0.5 µM,"COc1ccc(C(=O)O)cc1S(=O)(=O)Nc1cc(S(C)(=O)=O)ccc1N1CCC[C@H](O)C1 [Example 246, (S)-3-(N-(2-(3-hydroxypiperidin-1-yl)-5-(methylsulfonyl)phenyl)sulfamoyl)-4-methoxybenzoic acid]"
7,< 0.5 µM,"COc1ccc(C(=O)O)cc1S(=O)(=O)Nc1cc(C(F)(F)F)ccc1N1CCC(OC)C(C)(C)C1 (stereo not drawn) [Example 16, 4-methoxy-3-(N-(2-(4-methoxy-3,3-dimethylpiperidin-1-yl)-5-(trifluoromethyl)phenyl)sulfamoyl)benzoic acid]"
8,< 0.5 µM,"CCc1ccc(C(=O)O)cc1S(=O)(=O)Nc1ccc(C(F)(F)F)cc1N1CCCCC1 [Example 230, 4-ethyl-3-(N-(2-(piperidin-1-yl)-4-(trifluoromethyl)phenyl)sulfamoyl)benzoic acid]"
9,< 5 µM,"COc1ccc(C(=O)O)cc1NS(=O)(=O)c1cc(C(F)(F)F)ccc1N1CCOCC1 [Example 52, 4-methoxy-3-((2-morpholino-5-(trifluoromethyl)phenyl)sulfonamido)benzoic acid]"
10,< 5 µM,"COc1ccc(C(=O)O)cc1S(=O)(=O)Nc1cc(C(F)(F)F)ccc1N1CC(O)C1 [Example 37, 3-(N-(2-(3-hydroxyazetidin-1-yl)-5-(trifluoromethyl)phenyl)sulfamoyl)-4-methoxybenzoic acid]"
11,< 0.5 µM,"COc1ccc(C(=O)O)cc1S(=O)(=O)Nc1cc(C(F)(F)F)ccc1N1CCOCC1 [Example 72, 4-methoxy-3-(N-(2-morpholino-5-(trifluoromethyl)phenyl)sulfamoyl)benzoic acid]"
12,< 0.5 µM,"CCc1ccc(C(=O)O)cc1S(=O)(=O)Nc1cc(-c2ncnn2C)ccc1N1CCCCC1 [Example 288, 4-ethyl-3-(N-(5-(1-methyl-1,2,4-triazol-5-yl)-2-(piperidin-1-yl)phenyl)sulfamoyl)benzoic acid]"
13,< 0.5 µM,"CCc1ccc(C(=O)O)cc1S(=O)(=O)Nc1cc(S(C)(=O)=O)ccc1N1CCCCC1 [Example 241, 4-ethyl-3-(N-(5-(methylsulfonyl)-2-(piperidin-1-yl)phenyl)sulfamoyl)benzoic acid]"
14,< 5 µM,"O=C(O)c1cc(S(=O)(=O)Nc2cc(C(F)(F)F)ccc2N2CCCCC2)ccc1Cl [Example 83, 2-chloro-5-(N-(2-(piperidin-1-yl)-5-(trifluoromethyl)phenyl)sulfamoyl)benzoic acid]"
15,< 0.5 µM,"COc1ccc(C(=O)O)cc1S(=O)(=O)Nc1cc(-n2cnnn2)ccc1N1CCC[C@H](O)C1 [Example 253, (S)-3-(N-(2-(3-hydroxypiperidin-1-yl)-5-(tetrazol-1-yl)phenyl)sulfamoyl)-4-methoxybenzoic acid]"

# Source: patent publication US12485169B2, “Compounds” (GREY WOLF THERAPEUTICS LIMITED, priority 2018, dated 2025)
